Assay type in all cases: cell-based
Assay [1] deals with Staphylococcus aureus 209-P. Briefly: Antibacterial activity (IC), Mueller-Hinton broth, 96-well microplate (Example 4, Table 39). The settings on record: 37°C, 18 hours. As to the method:
(§1) A suitable amount of a sample was dissolved in dimethylsulfoxide (DMSO), and the resultant solution was diluted with the same amount of sterilized distilled water to prepare a bulk sample of 1,000 µg/ml. Mueller-Hinton broth (product of DIFCO) was dispensed into each well of 96-well microplate. Thereafter, the bulk specimen was added to the first well of a row, and successively diluted (10-fold each time) with sterilized distilled water. Separately, a bacterial cell suspension for the test (Staphylococcus aureus 209-P) which had been cultured in the above-mentioned broth overnight at 37°C was inoculated to each well so that the final inoculation amount of 10^6 CFU/ml was attained. The final concentrations of the samples were 100, 10, and 1 µg/ml.
(§2) The antibacterial action was evaluated by the inhibitory concentration (hereinafter abbreviated as IC) at which propagation of the bacteria cultured at 37°C for 18 hours was inhibited. Inhibition was determined by the turbidity of the medium. The expressions "IC≤100", "≤10", and "≤1" indicate that MIC-equivalent values obtained at the succesive […] dilution of the sample are 100-10 µg/ml, 10-1 µg/ml, and not more than 1 µg/ml, respectively. […] (In the subsequent Examples, the same rule applies correspondingly.) Table 39

Assay [2] has as its system Staphylococcus aureus TI-1. Description: Antibacterial activity (IC), broth microplate as in Example 4 (Example 5, Table 40). The settings on record: TI1, 18 h. Here is the method: as §1, §2
In a manner similar to that described in Example 4, antibacterial activity of the invention compound was determined. The bacterium used for the test was Staphylococcus aureus TI-1.

Assay [3] relates to Pasteurella multocida (Kobe-6). Description: Antibacterial activity (IC), broth microplate as in Example 4 (Example 6, Table 41). The conditions noted are these: 18 h, origin pig. Here is the method:
as §1, §2
In a manner similar to that described in Example 4, antibacterial activity of the invention compound was determined. The bacterium used for the test was Pasteurella Kobe-6 (origin: pig; Pasteurella multocida).

In assay [4] the test system is Pasteurella multocida (Kobe-6). Briefly: Antibacterial activity (IC), agar as in Example 8 (Example 17, Table 50). The settings on record: 18 h, origin pig. Here is the method: as §2
(§3) A suitable amount of a sample was dissolved in dimethylsulfoxide (DMSO), after which the resulting solution was diluted with the same amount of sterilized distilled water to prepare a bulk sample of 1,000 µg/ml. Separately, a bacterial liquid for the test (methicillin-resistant Staphylococcus aureus (MRSA) isolated from humans) which had been cultured in Mueller-Hinton broth (product of DIFCO) was prepared and inoculated to a Mueller-Hinton agar (product of DIFCO) containing the sample so that the final inoculation amount of 10^6 CFU/ml was achieved. The final concentrations of the samples were 100, 10, and 1 µg/ml.
(§4) After culturing at 37°C for 18 hours, the antibacterial activity was evaluated in terms of IC in a manner similar to that described in Example 4.
In a manner similar to that described in Example 8, antibacterial activity of the invention compound was determined. The bacterium used for the test was Pasteurella Kobe-6 (origin: pig, Pasteurella multocida).

Assay [5] has as its system Streptococcus aureus (TI-1). Briefly: Antibacterial activity (IC), agar as in Example 8 (Example 16, Table 49). The settings on record: 18 h. Summed up: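 Broth-grown […] aureus (TI-1) inoculated onto Mueller-Hinton agar containing compound, per the MRSA method; DMSO/water dilutions at final 100, 10 and 1 µg/ml, 10^6 CFU/ml inoculum. After 18 h at 37°C, growth inhibition judged by turbidity; IC reported as bands (100-10, 10-1, ≤1 µg/ml).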

In assay [6] the test system is Pasteurella from fish. Briefly: Antibacterial activity (IC), agar as in Example 8, media with 1.5% NaCl, 25°C (Example 20, Tables 53-55). The settings on record: for MIC: Pasteurella piscicida KP94-02. Here is the method: as §2, §3, §4
(§5) In a manner similar to that described in Example 8, antibacterial activity of a variety of ketonitrile derivatives shown in Tables 53-55 was measured. The bacteria used for the test were Enterococcus and Pasteurella from fish. The culture conditions were such that the media contained 1.5% NaCl, and the culture temperature was 25°C.

The test system of assay [7] is Enterococcus from fish. The assay is described as above. The settings on record: for MIC: Enterococcus Seriolicida SE94-002. Here is the method:
as §2, §3, §4, §5

The test system of assay [8] is methicillin-resistant Staphylococcus aureus (MRSA) from humans. Briefly: Antibacterial activity (IC), agar as in Example 8 (Example 19, Table 52). The conditions noted are these: 18 h. As to the method:
as §2, §3, §4
In a manner similar to that described in Example 8, antibacterial activity of a variety of ketonitrile derivatives shown in Table 52 was measured. The bacterium used for the test was methicillin-resistant Staphylococcus aureus (MRSA) from humans.

The subject of assay [9] is Staphylococcus aureus (209-P). Briefly: Antibacterial activity (IC), agar as in Example 8 (Example 15, Table 48). The settings on record: 18 h. Summed up:
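Agar dilution with Mueller-Hinton agar containing sample at final 100, 10 and 1 µg/ml, inoculated to 10^6 CFU/ml. Incubated at 37°C for 18 h, growth inhibition judged by medium turbidity. IC bands at successive 2-fold dilution: 100-10, 10-1, or ≤1 µg/ml.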

The mark [10] stands for this setting: Enterococcus Seriolicida KG86050.
The mark [11] stands for this setting: Enterococcus Seriolicida MS89060.
Setting [12] is: Enterococcus Seriolicida MS89064.
Where [13] appears, read: Enterococcus Seriolicida MS89066.
[14] abbreviates: Enterococcus Seriolicida MS89068.
[15] abbreviates: Enterococcus Seriolicida SE94-001.
The mark [16] stands for this setting: Enterococcus Seriolicida SE94-003.
[17] abbreviates: Enterococcus Seriolicida SE94-004.
Setting [18] is: Enterococcus Seriolicida SE94-005.

In brackets after ≈: the same amount, converted by molar mass.

From patent publication EP0768085A1, “ANTIBACTERIAL AGENT” (DAIICHI PHARMACEUTICAL CO., LTD., priority 1994, dated 1996) come the findings set out here.

Usually MIC stands for the lowest concentration found to suppress growth. A low value points to greater potency.

For `COc1cccc(C(C#N)C(=O)C(C)Oc2ccc(Oc3ncc(C(F)(F)F)cc3Cl)cc2)c1` (stereo not drawn) [compound 17], the MIC in assay [1], in assay [2] and in [3] was 10 to 100 µg/mL (≈ 20.4 to 204 µM) throughout.

For `CC(Oc1ccc(Oc2ncc(Cl)cc2Cl)cc1)C(=O)C(C#N)c1nc(Cl)cc(Cl)n1` (stereo not drawn) [compound 20], the minimal inhibitory concentration (MIC) in assay [1] lay in the range of 10 to 100 µg/mL (≈ 20.1 to 201 µM); in [2] it was 1 to 10 µg/mL (≈ 2.01 to 20.1 µM); in [3] it was 10 to 100 µg/mL (≈ 20.1 to 201 µM).

Turning to `CC(Oc1ccc(Oc2ccc(C(F)(F)F)cc2Cl)cc1)C(=O)C(C#N)c1nc(Cl)cc(Cl)n1` (stereo not drawn) [compound 22], the minimal inhibitory concentration (MIC) lay in the range of 1 to 10 µg/mL (≈ 1.88 to 18.8 µM) in [1], 1 to 10 µg/mL (≈ 1.88 to 18.8 µM) in [2] and 10 to 100 µg/mL (≈ 18.8 to 188 µM) in assay [3].

On to `CC(Oc1ccc(Oc2ncc(C(F)(F)F)cc2Cl)cc1)C(=O)C(C#N)c1ccc(F)c(F)c1` (stereo not drawn) [compound 27], for which the MIC in assay [1] fell in the range of 1 to 10 µg/mL (≈ 2.01 to 20.1 µM); in assay [2] it was 1 to 10 µg/mL (≈ 2.01 to 20.1 µM); in assay [3], 10 to 100 µg/mL (≈ 20.1 to 201 µM).

For the compound `COc1cc(Oc2ccc(C(F)(F)F)cc2Cl)cc(OC(C)C(=O)C(C#N)c2ccc(Cl)c(Cl)c2)c1` (stereo not drawn) [compound 209], the minimum inhibitory concentration (MIC) lay within 1 to 10 µg/mL (≈ 1.79 to 17.9 µM) in assay [4]; 1 to 10 µg/mL (≈ 1.79 to 17.9 µM) in [5]; 10 to 100 µg/mL (≈ 17.9 to 179 µM) in assay [6]; 1 to 10 µg/mL (≈ 1.79 to 17.9 µM) in assay [7]; 1 to 10 µg/mL (≈ 1.79 to 17.9 µM) in assay [8] (MRSA strain 891179); 1 to 10 µg/mL (≈ 1.79 to 17.9 µM) in assay [8] (MRSA strain 891185). Further, the MIC in [8] (MRSA strain 891187), in [8] (MRSA strain 891192), in assay [8] (MRSA strain 900048), in assay [8] (MRSA strain 900056) and in assay [9] was 1 to 10 µg/mL (≈ 1.79 to 17.9 µM) throughout. Besides, the IC in [6] (Pasteurella piscicida KP94-04) was ≤100 (MIC-equivalent values obtained at the succesive 2-fold dilution of the sample are 100-10 µg/ml); in assay [6] (Pasteurella piscicida KP94-05), ≤100 (MIC-equivalent values obtained at the succesive 2-fold dilution of the sample are 100-10 µg/ml); in assay [6] (Pasteurella piscicida KP94-06), ≤100 (MIC-equivalent values obtained at the succesive 2-fold dilution of the sample are 100-10 µg/ml); in assay [7] (Enterococcus Seriolicida HI), ≤10 (10-1 µg/ml); in assay [7] (setting [10]), ≤10 (10-1 µg/ml); in [7] (setting [11]), ≤10 (10-1 µg/ml). The IC in assay [7] (setting [12]), in [7] (setting [13]), in [7] (setting [14]), in assay [7] (setting [15]), in assay [7] (setting [16]) and in assay [7] (setting [17]) was ≤10 (10-1 µg/ml) each time. For the same compound, the IC in [7] (setting [18]) is ≤10 (10-1 µg/ml).

With `CC(Oc1cc(Oc2ccc(C(F)(F)F)cc2Cl)cc(Oc2ccc(C(F)(F)F)cc2Cl)c1)C(=O)C(C#N)c1ccc(Cl)c(Cl)c1` (stereo not drawn) [compound 210], the MIC in assay [4] was in the range of 10 to 100 µg/mL (≈ 13.8 to 138 µM); in [5], 1 to 10 µg/mL (≈ 1.38 to 13.8 µM); in assay [6] it was 10 to 100 µg/mL (≈ 13.8 to 138 µM); in [7], 1 to 10 µg/mL (≈ 1.38 to 13.8 µM); in assay [8] (MRSA strain 891179), 1 to 10 µg/mL (≈ 1.38 to 13.8 µM); in assay [8] (MRSA strain 891185), 1 to 10 µg/mL (≈ 1.38 to 13.8 µM). In addition, the MIC in [8] (MRSA strain 891187), in assay [8] (MRSA strain 891192), in assay [8] (MRSA strain 900048), in assay [8] (MRSA strain 900056) and in assay [9] was 1 to 10 µg/mL (≈ 1.38 to 13.8 µM) throughout. Besides, the IC in assay [6] (Pasteurella piscicida KP94-04) is given as ≤100 (MIC-equivalent values obtained at the succesive 2-fold dilution of the sample are 100-10 µg/ml); in [6] (Pasteurella piscicida KP94-05) it was ≤100 (MIC-equivalent values obtained at the succesive 2-fold dilution of the sample are 100-10 µg/ml); in [6] (Pasteurella piscicida KP94-06) it was ≤100 (MIC-equivalent values obtained at the succesive 2-fold dilution of the sample are 100-10 µg/ml); in [7] (Enterococcus Seriolicida HI), ≤10 (10-1 µg/ml); in assay [7] (setting [10]), ≤10 (10-1 µg/ml); in assay [7] (setting [11]), ≤10 (10-1 µg/ml). In addition, the IC in [7] (setting [12]), in assay [7] (setting [13]), in assay [7] (setting [14]), in assay [7] (setting [15]), in [7] (setting [16]) and in assay [7] (setting [17]) was ≤10 (10-1 µg/ml) throughout. For the same compound, the IC in assay [7] (setting [18]) was ≤10 (10-1 µg/ml).

Turning to `CC(Oc1cc(Oc2ccc(C(F)(F)F)cc2Cl)cc(Oc2ccc(C(F)(F)F)cc2Cl)c1)C(=O)C(C#N)c1cccc(Br)c1` (stereo not drawn) [compound 211], the MIC in assay [4] lay in the range of 1 to 10 µg/mL (≈ 1.36 to 13.6 µM); in assay [5] it was 1 to 10 µg/mL (≈ 1.36 to 13.6 µM); in assay [6], 10 to 100 µg/mL (≈ 13.6 to 136 µM); in assay [7] it was 1 to 10 µg/mL (≈ 1.36 to 13.6 µM); in [8] (MRSA strain 891179), 1 to 10 µg/mL (≈ 1.36 to 13.6 µM); in [8] (MRSA strain 891185) it was 1 to 10 µg/mL (≈ 1.36 to 13.6 µM). Besides, the minimum inhibitory concentration (MIC) in [8] (MRSA strain 891187), in assay [8] (MRSA strain 891192), in assay [8] (MRSA strain 900048), in assay [8] (MRSA strain 900056) and in [9] was 1 to 10 µg/mL (≈ 1.36 to 13.6 µM) in each case. Further, the IC in [6] (Pasteurella piscicida KP94-04) is recorded as ≤100 (MIC-equivalent values obtained at the succesive 2-fold dilution of the sample are 100-10 µg/ml); in [6] (Pasteurella piscicida KP94-05), ≤100 (MIC-equivalent values obtained at the succesive 2-fold dilution of the sample are 100-10 µg/ml); in assay [6] (Pasteurella piscicida KP94-06) it was ≤100 (MIC-equivalent values obtained at the succesive 2-fold dilution of the sample are 100-10 µg/ml); in [7] (Enterococcus Seriolicida HI) it was ≤10 (10-1 µg/ml); in [7] (setting [10]) it was ≤10 (10-1 µg/ml); in assay [7] (setting [11]) it was ≤10 (10-1 µg/ml). Moreover, the IC in assay [7] (setting [12]), in [7] (setting [13]), in [7] (setting [14]), in assay [7] (setting [15]), in [7] (setting [16]) and in [7] (setting [17]) was ≤10 (10-1 µg/ml) throughout. Further, the IC in assay [7] (setting [18]) is listed as ≤10 (10-1 µg/ml).
